By IC50 is commonly meant the concentration needed to halve the response being measured.

Each structure is given as a SMILES string. Read-outs that look alike come from different tables or passages of the source.

Series [1] has as its target T1, CYP2E1 activity with HLM150 (Homo sapiens, UniProt P05181). Kind of series: Steady-state inhibition kinetics of 4-nitrophenol oxidation, HLM150.
In series [2] the test system is CYP2E1. To be noted: CYP2E1 Supersomes; ref Hartman et al., 2012; cited from earlier work.
For series [3], the target named is T2, CYP2E1 (Homo sapiens, UniProt P05181). To be noted: human, recombinant enzyme, pH 7.4.
T2 sequence (P05181 whole entry): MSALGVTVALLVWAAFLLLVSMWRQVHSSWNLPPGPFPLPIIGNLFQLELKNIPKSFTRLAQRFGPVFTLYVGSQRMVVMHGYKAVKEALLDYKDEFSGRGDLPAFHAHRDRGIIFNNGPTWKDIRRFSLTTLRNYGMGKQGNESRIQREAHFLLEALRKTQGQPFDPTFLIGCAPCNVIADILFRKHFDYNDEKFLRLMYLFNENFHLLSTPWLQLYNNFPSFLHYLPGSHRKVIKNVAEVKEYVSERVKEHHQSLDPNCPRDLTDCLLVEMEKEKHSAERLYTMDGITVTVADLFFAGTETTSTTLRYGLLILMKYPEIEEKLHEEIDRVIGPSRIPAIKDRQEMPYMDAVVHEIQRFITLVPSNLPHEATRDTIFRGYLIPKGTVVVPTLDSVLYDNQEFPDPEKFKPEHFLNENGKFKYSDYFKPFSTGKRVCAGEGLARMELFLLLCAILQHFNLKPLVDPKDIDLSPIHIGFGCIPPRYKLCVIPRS
Series [4] deals with T3, human CYP2E1 (Supersomes) (Homo sapiens, UniProt P05181).
T3 sequence (P05181 whole entry): as above
Series [5] concerns the target T2, CYP2E1. Nature of the series: Steady-state inhibition kinetics of 4-nitrophenol oxidation, CYP2E1 Supersomes. To be noted: for Ki: Ki,ap, apparent, catalytic site, 95% CI in parentheses; for Mechanism: most probable inhibition mechanism among 10 models.
Series [6] has as its target T2, CYP2E1. To be noted: human, microsomes, pH 7.4.
Series [7] deals with T4, CYP2E1 in human liver microsomes (HLM150) (Homo sapiens, UniProt P05181).
T4 sequence (P05181 whole entry): as above
In series [8] the target is T2, CYP2E1. Kind of series: in vitro. To be noted: recombinant enzyme, pH 7.4.
In series [9] the target is T2, CYP2E1. Nature of the series: in vitro. Conditions: microsomes, pH 7.4.
For series [10], the target named is T2, CYP2E1.
For series [11], the target named is T1, CYP2E1 activity with HLM150.
For series [12], the target named is T3, human CYP2E1 (Supersomes). To be noted: recombinant enzyme, pH 7.4.
Series [13] concerns the target T4, CYP2E1 in human liver microsomes (HLM150). To be noted: pH 7.4.

T1 sequence (P05181 whole entry): as above

As for `C=Cc1ccccc1` [Styrene, styrene], the Ki in series [1] (Ki,ap, HLM150, apparent, catalytic site, 95% CI in parentheses) stood at 18 µM; in [1] (Ksi,ap, HLM150, apparent, cooperative site, 95% CI in parentheses) it was 58 µM; on CYP2E1 [5] it was 67 µM. The “Ks (high affinity apparent binding constant during styrene metabolism)” value with CYP2E1 [2] was 110 µM. Besides, the values for the activity at 30 min on CYP2E1 [3] and at CYP2E1 [6] were 11% and 20%, respectively. In addition, the IC50 in series [4] stood at 75 µM; in series [7], 45 µM. Moreover, the Mechanism entry at CYP2E1 [5] is listed as “Mixed cooperative substrate”.
Regarding `c1ccc(C2CO2)cc1` (stereo not shown) [Styrene oxide, 8,9-styrene oxide], the Ki in series [1] was 160 µM; at CYP2E1 [5], 110 µM. Also, the activity at 30 min at CYP2E1 [3] turned out to be 13%; at CYP2E1 [6] it was 28%. Also, the values for the IC50 in series [4] and in series [7] were 55 µM and 150 µM, respectively. On CYP2E1 [5], the Mechanism result was “Mixed cooperative substrate”.
Regarding `C=Cc1ccc(O)cc1` [4-Vinylphenol, 4-vinylphenol], the 50% inhibitory concentration (IC50) at 30 min on CYP2E1 [8] came to 24 µM. Also, the activity at 30 min turned out to be 16% at CYP2E1 [8] and 19% at CYP2E1 [9]. The Ki in [1] amounted to 61 µM; on CYP2E1 [5], 47 µM. In addition, the Mechanism entry at CYP2E1 [10] is reported as “Mixed cooperative substrate”. In series [7], this compound yielded an IC50 of 38 µM.
`OCC(O)c1ccccc1` (racemic) [R/S-Styrene glycol, (R/S)-1,2-phenylethanediol]: the activity at 30 min at CYP2E1 [8] is 9.2%; at CYP2E1 [9], 18%. In addition, the entries for the “Ki,ap” value (in [11]; on CYP2E1 [10] (recombinant enzyme)) were 17 000 (15 000–19 000) μM and 29 000 (19 000–52 000) μM, respectively. In addition, the Mechanism entry (in series [11]; on CYP2E1 [10]) was “Competitive” each time. In addition, the IC50 in [12] is on record as 13 000 (2800–23 000) μM; in [13] it was 14 000 (6600–21 000) μM.

The values above are taken from publication PMC3979932 (Xenobiotica; the fate of foreign compounds in biological …, 2013).
